From ChEMBL document CHEMBL5120953, “Novel Macrocyclic 1,3,4-Oxadiazoles as CFTR Modulators for Treating Cystic Fibrosis” (ACS Med Chem Lett, 2022)

Assay: Modulation of CFTR F508 deletion/MF mutant in HBE cells assessed as change in short circuit current incubated for 18 to 24 hrs in presence of forskolin and amiloride by voltage-clamp based chamber assay
Format: cell-based
Conditions: Homo sapiens

SMILES | EC50
Nc1cc(C(F)(F)F)c2nc1-c1nnc(o1)[C@@](O)(C(F)(F)F)CCCCCC(c1ccccn1)N2 (stereo partly specified) | < 500 nM
Nc1cc(C(F)(F)F)c2nc1-c1nnc(o1)[C@@](O)(C(F)(F)F)CCCCCC1(CCCCC1)N2 | < 500 nM
Nc1cc(C(F)(F)F)c2nc1-c1nnc(o1)[C@@](O)(C(F)(F)F)CCCCCC1(CCC1)N2 | < 500 nM
Nc1cc(S(=O)(=O)c2ccccc2)c2nc1-c1nnc(o1)[C@@](O)(C(F)(F)F)CCCCC[C@@H]1CCCN21 | < 500 nM

Second part, the molecule after the results:

EC50 | SMILES
< 500 nM | Nc1cc(C(F)(F)F)c2nc1-c1nnc(o1)[C@@](O)(C(F)(F)F)CCCCC[C@@H]1CCCN21
< 500 nM | Nc1cc(Br)c2nc1-c1nnc(o1)[C@@](O)(C(F)(F)F)CCCCC[C@@H]1CCCN21
